Measured values taken from patent US4001230A, “3-(5-Nitroimidazol-2-yl)pyrazolo[3,4-d]pyrimidine compounds” (Eli Lilly and Company, priority 1975, dated 1977).
Where two headings read alike, the source gives them in different places.

Legend:
Pasteurella multocida = test: Efficacy against Pasteurella multocida infections in mice when administered by injection; format: in vivo, Female Swiss mice; details: for responders at 5 mg/kg / responders at 2.5 mg/kg: Pasteurella multocida, ip, read-out: Survival ratio (mice surviving / mice tested) (converted)
Experimental: The efficacy of the novel compounds against Pasteurella multocida infections in mice when administered by injection was studied.
Female Swiss mice weighing from 15 to about 20 g. were used. The test compound, 5.0 mg., was weighed out and dissolved in 0.5 ml. of dimethyl sulfoxide, and this solution was added to 9.5 ml. of sodium carboxymethylcellulose suspension. Groups of five mice each were injected intraperitoneally with 0.1 ml. each of the above-prepared test composition. This preparation gave a test rate of 2.5 mg. per kilo of body weight of mouse. The compounds were tested at 1.25, 2.5, or 5.0 per kilogram of body weight of mouse, and the test preparations for the rates of 1.25 and 5.0 mg./kg. were prepared in a similar manner. Immediately after receiving the test compound, the mice were challenged using log10 dilutions of 10^-^4, 10^-^5 and 10^-^6,of a 16 to 20-hour tryptose broth culture of Pasteurella multocida at 0.1 ml. per mouse subcutaneously. Similar groups of nontreated control mice were also challenged, the challenge being administered subcutaneously. The groups of mice were observed daily for mortality and the total mortality in treated groups compared with that which occurred in the nonmedicated control groups. Each test compound is identified by the number of the example describing its preparation.
In the chart, column 1 lists the test compound; column 2, the dosage of test compound in mg./kg. of mouse body weight; column 3, the dilution of the challenge organism; and column 4, the ratio of the number of mice surviving the test at each dosage and challenge dilution to the number of mice tested at each dosage and challenge dilution, called the survival ratio.

Aeromonas liquefaciens = test: In vitro activity against fish bacterial pathogen, standard tube dilution test (MIC); format: cell-based; details: Aeromonas hydrophila, read-out: minimum inhibitory concentration (MIC)
Experimental: (§1) The in vitro activity of certain of the novel compounds of this invention against two fish bacterial pathogens was determined using tryptose broth and the standard tube dilution test system. Doubling dilutions ranging from 100.0 to 0.78 mcg./ml. of each of the test compounds were prepared in 5 ml. amounts of tryptose broth. Each tube in the series was then inoculated with one drop from a 24-hour broth culture of either Pseudomonas sp. or a strain of Aeromonas liquefaciens. The tubes were incubated overnight at about 37° C., and the minimum inhibitory concentration (MIC) determined and recorded.
(§2) Column 1 lists the test compounds identified by their operating example number; column 2 lists the MIC for Pseudomonas sp.; and column 3 lists the MIC for Aeromonas liquefaciens.

Pseudomonas sp. = test: as above; format: cell-based; details: tryptose broth, overnight, about 37° C., read-out: minimum inhibitory concentration (MIC)
Experimental: as §1, §2

Treponema hyodysenteriae = test: In vitro activity against Treponema hyodysenteriae on blood agar plates (MIC); format: cell-based; details: for MIC: Brachyspira hyodysenteriae, 96 h, read-out: minimum inhibitory concentration (MIC); for inhibition of growth of the treponema: doubling dilutions 100 mcg./ml. to 0.39 mcg./ml.
Experimental: A number of representative compounds, namely, 5b, 8, and 15b, were tested for their in vitro activity against Treponema hyodysenteriae. The treponema were propagated on blood agar plates. Each plate which was prepared contained 20 ml. of trypticase soy agar (Baltimore Biological Laboratory [BBL]) with 5.0 g./l. of yeast extract (Difco) and 5 percent sterile defibrinated horse blood. The plates were sterile plastic 15 × 100 mm. petri plates. Incubation was carried out at 37° C. for 4 days under anaerobic conditions using the BBL Gas Pak system.
The concentrations of test compounds in this initial test were prepared in dilutions ranging from 2000 mcg./ml. to 7.8 mcg./ml. The test procedure was carried out in the following manner. Five ml. of a twenty-fold concentration in tryptose broth (Difco) of each filter-sterilized test compound dilution was mixed in a series of flasks containing 90 ml. of melted trypticase soy agar with yeast extract. Five ml. of horse blood was then added per flask. The contents of these flasks were then used to prepare a series of blood agar plates in doubling decreasing dilutions ranging from 100 mcg./ml. to 0.39 mcg./ml.
The treponema for inoculation of these plates were obtained by adding 3.0 ml. of sterile tryptose broth to the surface of a plate on which the treponema had been propagated. A sterile cotton-tipped swab was used to loosen the treponema from the agar. […] The inoculum was spread so that it covered the surface of each plate, a bent sterile plastic pipette being used for this purpose for each plate. The plates were incubated at about 36° C. for about 4 days and then examined for growth of the treponema. The minimum inhibitory concentration (MIC) of each test compound was the concentration that prevented growth of treponema.

[1] = 5.0 mg./kg. intraperitoneal, challenge dilution 10^-^4 subcutaneous
[2] = 5.0 mg./kg. intraperitoneal, challenge dilution 10^-^5 subcutaneous
[3] = 5.0 mg./kg. intraperitoneal, challenge dilution 10^-^6 subcutaneous
[4] = 2.5 mg./kg. intraperitoneal, challenge dilution 10^-^4 subcutaneous
[5] = 2.5 mg./kg. intraperitoneal, challenge dilution 10^-^5 subcutaneous
[6] = 2.5 mg./kg. intraperitoneal, challenge dilution 10^-^6 subcutaneous
[7] = Aeromonas liquefaciens, tryptose broth, overnight, about 37° C.

Cn1c([N+](=O)[O-])cnc1-c1nn(C)c2ncnc(N)c12 [Example 4, 4-Amino-1-methyl-3-(1-methyl-5-nitroimidazol-2-yl)-1H-pyrazolo-[3,4-d]pyrimidine]
Survival ratio (mice surviving / mice tested) (Pasteurella multocida; [1]): 4/10
responders at 5 mg/kg (Pasteurella multocida; [2]): 50%
responders at 5 mg/kg (Pasteurella multocida; [3]): 50%

Cl.Cn1c([N+](=O)[O-])cnc1-c1nn(C)c2ncnc(N)c12 [Example 4a, 4-amino-1-methyl-3-(1-methyl-5-nitroimidazol-2-yl)-1H-pyrazolo[3,4-d]pyrimidine hydrochloride]
Survival ratio (mice surviving / mice tested) (Pasteurella multocida; [1]): 7/10
Survival ratio (mice surviving / mice tested) (Pasteurella multocida; [2]): 7/10
Survival ratio (mice surviving / mice tested) (Pasteurella multocida; [3]): 7/10

CCCn1cnc2c(c(-c3ncc([N+](=O)[O-])n3C)nn2C)c1=N [Example 5, 4,5-Dihydro-4-imino-1-methyl-3-(1-methyl-5-nitroimidazol-2-yl)-5-propyl-1H-pyrazolo[3,4-d]pyrimidine]
responders at 5 mg/kg (Pasteurella multocida; [1]): 30%
responders at 5 mg/kg (Pasteurella multocida; [2]): 60%
responders at 5 mg/kg (Pasteurella multocida; [3]): 90%

CCCn1cnc2c(c(-c3ncc([N+](=O)[O-])n3C)nn2C)c1=N.O=[N+]([O-])O [Example 5b, 4,5-Dihydro-4-imino-1-methyl-3-(1-methyl-5-nitroimidazol-2-yl)-5-propyl-1H-pyrazolo[3,4-d]pyrimidine mononitrate]
MIC (Aeromonas liquefaciens): 25 µg/mL
MIC (Pseudomonas sp.): 3.12 µg/mL
MIC (Treponema hyodysenteriae): ≤ 1.56 µg/mL
inhibition of growth of the treponema (Treponema hyodysenteriae): inhibited growth of the treponema at each of the levels tested

Cn1c([N+](=O)[O-])cnc1-c1nn(C)c2ncnc(NCC(=O)O)c12 [Example 6, N-[1-Methyl-3-(1-methyl-5-nitroimidazol-2-yl)-1H-pyrazolo[3,4-d]pyrimidin-4-yl]glycine]
responders at 5 mg/kg (Pasteurella multocida; [1]): 20%
responders at 5 mg/kg (Pasteurella multocida; [2]): 20%
responders at 5 mg/kg (Pasteurella multocida; [3]): 20%

CCn1cnc2c(c(-c3ncc([N+](=O)[O-])n3C)nn2C)c1=N [Example 7, 5-Ethyl-4,5-dihydro-4-imino-1-methyl-3-(1-methyl-5-nitroimidazol-2-yl)-1H-pyrazolo[3,4-d]pyrimidine]
responders at 2.5 mg/kg (Pasteurella multocida; [4]): 20%
responders at 2.5 mg/kg (Pasteurella multocida; [5]): 40%
responders at 2.5 mg/kg (Pasteurella multocida; [6]): 60%
responders at 5 mg/kg (Pasteurella multocida; [1]): 40%
responders at 5 mg/kg (Pasteurella multocida; [2]): 70%
responders at 5 mg/kg (Pasteurella multocida; [3]): 100%

CCN(CC)CCn1cnc2c(c(-c3ncc([N+](=O)[O-])n3C)nn2C)c1=N [Example 8a, 5-[2-(Diethylamino)ethyl]-4,5-dihydro-4-imino-1-methyl-3-(1-methyl-5-nitroimidazol-2-yl)-1H-pyrazolo[3,4-d]-pyrimidine]
responders at 5 mg/kg (Pasteurella multocida; [1]): 40%
responders at 5 mg/kg (Pasteurella multocida; [2]): 20%
responders at 5 mg/kg (Pasteurella multocida; [3]): 100%

Cn1c([N+](=O)[O-])cnc1-c1nn(C)c2ncn(Cc3ccncc3)c(=N)c12 [Example 8d, 4,5-Dihydro-4-imino-1-methyl-3-(1-methyl-5-nitroimidazol-2-yl)-5-(4-pyridylmethyl)-1H-pyrazolo[3,4-d]pyrimidine]
responders at 5 mg/kg (Pasteurella multocida; [1]): 100%
responders at 5 mg/kg (Pasteurella multocida; [2]): 100%
responders at 5 mg/kg (Pasteurella multocida; [3]): 100%

CN(C)CCn1cnc2c(c(-c3ncc([N+](=O)[O-])n3C)nn2C)c1=N.Cl.Cl [Example 8g, 5-[2-(dimethylamino)-ethyl]-4,5-dihydro-4-imino-1-methyl-3-(1-methyl-5-nitroimidazol-2-yl)-1H-pyrazolo[3,4-d]pyrimidine dihydrochloride]
Survival ratio (mice surviving / mice tested) (Pasteurella multocida; [4]): 2/10
Survival ratio (mice surviving / mice tested) (Pasteurella multocida; [5]): 6/10
Survival ratio (mice surviving / mice tested) (Pasteurella multocida; [6]): 10/10
Survival ratio (mice surviving / mice tested) (Pasteurella multocida; [1]): 7/10
Survival ratio (mice surviving / mice tested) (Pasteurella multocida; [2]): 9/10
Survival ratio (mice surviving / mice tested) (Pasteurella multocida; [3]): 10/10

Cn1c([N+](=O)[O-])cnc1-c1nn(C)c2ncn(Cc3ccncc3)c(=N)c12 [Example 8k, 4,5-dihydro-4-imino-1-methyl-3-(1-methyl-5-nitroimidazol-2-yl)-5-(4-pyridylmethyl)-1H-pyrazolo[3,4-d]pyrimidine diphosphate]
MIC (Aeromonas liquefaciens; [7]): 50 µg/mL
MIC (Pseudomonas sp.): 0.78 µg/mL

Cn1c([N+](=O)[O-])cnc1-c1nn(C)c2ncnc(NN)c12 [Example 9, 4-Hydrazino-1-methyl-3-(1-methyl-5-nitroimidazol-2-yl)-1H-pyrazolo[3,4-d]pyrimidine]
responders at 5 mg/kg (Pasteurella multocida; [1]): 100%
responders at 5 mg/kg (Pasteurella multocida; [2]): 80%
responders at 5 mg/kg (Pasteurella multocida; [3]): 90%

Cn1c([N+](=O)[O-])cnc1-c1nn(C)c2ncnc(NN)c12.O=P(O)(O)O [Example 9a, 4-hydrazino-1-methyl-3-(1-methyl-5-nitroimidazol-2-yl)-1H-pyrazolo[3,4-d]-pyrimidine monophosphate]
MIC (Aeromonas liquefaciens; [7]): 25 µg/mL
MIC (Pseudomonas sp.): 0.78 µg/mL

CC(=O)Nc1ncnc2c1c(-c1ncc([N+](=O)[O-])n1C)nn2C [Example 11, N-[1-Methyl-3-(1-methyl-5-nitroimidazol-2-yl)-1H-pyrazolo[3,4-d]-pyrimidin-4-yl]acetamide]
responders at 5 mg/kg (Pasteurella multocida; [1]): 0%
responders at 5 mg/kg (Pasteurella multocida; [2]): 0%
responders at 5 mg/kg (Pasteurella multocida; [3]): 20%

Cn1c([N+](=O)[O-])cnc1-c1nn(C)c2nc(C(F)(F)F)[nH]c(=O)c12 [Example 12, 1,5-Dihydro-1-methyl-3-(1-methyl-5-nitroimidazol-2-yl)-6-(trifluoromethyl)-4H-pyrazolo[3,4-d]pyrimidin-4-one]
responders at 5 mg/kg (Pasteurella multocida; [1]): 20%
responders at 5 mg/kg (Pasteurella multocida; [2]): 20%
responders at 5 mg/kg (Pasteurella multocida; [3]): 0%

CCOC(Cn1cnc2c(c(-c3ncc([N+](=O)[O-])n3C)nn2C)c1=N)OCC [Example 14, 4-Imino-1-methyl-3-(1-methyl-5-nitroimidazol-2-yl)-1H-pyrazolo-[3,4-d]pyrimidine-5(4H)-acetaldehyde, diethyl acetal]
responders at 5 mg/kg (Pasteurella multocida; [1]): 0%
responders at 5 mg/kg (Pasteurella multocida; [2]): 20%
responders at 5 mg/kg (Pasteurella multocida; [3]): 40%

Cn1c([N+](=O)[O-])cnc1-c1nn(C)c2ncn(CCN3CCOCC3)c(=N)c12 [Example 15b, 4,5-Dihydro-4-imino-1-methyl-3-(1-methyl-5-nitroimidazol-2-yl)-5-(2-morpholinoethyl)-1H-pyrazolo[3,4-d]-pyrimidine diphosphate]
MIC (Aeromonas liquefaciens; [7]): 50 µg/mL
MIC (Pseudomonas sp.): 1.56 µg/mL
MIC (Treponema hyodysenteriae; blood agar plates, about 36° C., about 4 days): ≤ 1.56 µg/mL
inhibition of growth of the treponema (Treponema hyodysenteriae): inhibited growth of the treponema at each of the levels tested
